pIC50: −log10 of the molar value.
target: T1, rat NaPi-2b (Rattus norvegicus, UniProt Q9JJ09); assay: Sodium-dependent phosphate uptake of Xenopus oocytes which expressed NaPi-2b (32P); type: cell-based; settings: Xenopus oocytes expressing rat NaPi-2b, 32P radioactive phosphorus; read-out: IC50 (phosphate uptake inhibitory activity)
T1 construct: expressed in transfected cells; host or cells: Xenopus oocytes injected with cRNA
T1 sequence (Q9JJ09 1-695): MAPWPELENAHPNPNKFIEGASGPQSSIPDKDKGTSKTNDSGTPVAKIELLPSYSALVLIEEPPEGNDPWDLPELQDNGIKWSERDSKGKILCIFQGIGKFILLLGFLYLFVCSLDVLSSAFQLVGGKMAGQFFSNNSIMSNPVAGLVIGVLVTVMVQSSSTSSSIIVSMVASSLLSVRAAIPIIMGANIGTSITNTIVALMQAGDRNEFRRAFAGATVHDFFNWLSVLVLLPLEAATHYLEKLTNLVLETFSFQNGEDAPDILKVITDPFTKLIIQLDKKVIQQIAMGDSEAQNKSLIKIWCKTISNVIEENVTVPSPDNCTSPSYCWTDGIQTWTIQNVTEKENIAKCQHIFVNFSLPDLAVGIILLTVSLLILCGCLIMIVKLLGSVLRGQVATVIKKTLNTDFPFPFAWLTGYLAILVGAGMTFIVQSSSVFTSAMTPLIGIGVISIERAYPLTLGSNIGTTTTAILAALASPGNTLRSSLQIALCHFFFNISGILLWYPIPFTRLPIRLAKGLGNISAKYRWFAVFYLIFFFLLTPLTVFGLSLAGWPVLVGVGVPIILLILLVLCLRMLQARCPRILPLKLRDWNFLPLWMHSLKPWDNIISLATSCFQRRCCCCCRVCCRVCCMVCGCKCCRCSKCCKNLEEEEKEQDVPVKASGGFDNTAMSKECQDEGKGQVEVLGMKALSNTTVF
Outline: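 Rat NaPi-2b cloned from small-intestine cDNA; cRNA injected into Xenopus oocytes, expression for 2 days. Phosphate uptake inhibition measured with 32P; percent inhibition at 300 μM and 100 μM read from the same inhibition curve.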

Compound | pIC50
CCN(CC)CCN(C)Cc1cccc(C(=O)Nc2ccc(OCCCN3CCCCC3)cc2C(=O)N/N=C/c2ccc(Cl)c(C(F)(F)F)c2)c1 [Compound 1038, N-[2-(4-Chloro-3-trifluoromethyl-benzylidene-hydrazinocarbonyl)-4-(3-piperidin-1-yl-propoxy)-phenyl]-3-{[(2-diethylamino-ethyl)-methyl-amino]-methyl}-benzamide] | 5.47
O=C(Nc1ccc(OCCCN2CCCCC2)cc1C(=O)N/N=C/c1ccc(Cl)c(C(F)(F)F)c1)c1cccc(CSCCO)c1 [Compound 1039, N-[2-(4-Chloro-3-trifluoromethyl-benzylidene-hydrazinocarbonyl)-4-(3-piperidin-1-yl-propoxy)-phenyl]-3-(2-hydroxy-ethylsulfanylmethyl)-benzamide] | 5.56
COc1ccc(/C=N/NC(=O)c2cc(OCCCN3CCCCC3)ccc2NC(=O)c2cccc(CSCCO)c2)cc1 [Compound 1040, 3-(2-Hydroxy-ethylsulfanylmethyl)-N-[2-(4-methoxy-benzylidene-hydrazinocarbonyl)-4-(3-piperidin-1-yl-propoxy)-phenyl]-benzamide] | 4.28
Cc1ccc(/C=N/NC(=O)c2cc(OCCCN3CCCCC3)ccc2NC(=O)c2cccc(CSCCO)c2)cc1C [Compound 1041, N-[2-(3,4-Dimethyl-benzylidene-hydrazinocarbonyl)-4-(3-piperidin-1-yl-propoxy)-phenyl]-3-(2-hydroxy-ethylsulfanylmethyl)-benzamide] | 4.99
Cc1ccc(/C=N/NC(=O)c2cc(OCCN3CCCCC3)ccc2NC(=O)c2cccc(CSCCO)c2)cc1 [Compound 1042, 3-(2-Hydroxy-ethylsulfanylmethyl)-N-[2-(4-methyl-benzylidene-hydrazinocarbonyl)-4-(2-piperidin-1-yl-ethoxy)-phenyl]-benzamide] | 4.83
Cc1ccc(/C=N/NC(=O)c2cc(OCCN3CCCCC3)ccc2NC(=O)c2cccc(CSCCO)c2)cc1C [Compound 1043, N-[2-(3,4-Dimethyl-benzylidene-hydrazinocarbonyl)-4-(2-piperidin-1-yl-ethoxy)-phenyl]-3-(2-hydroxy-ethylsulfanylmethyl)-benzamide] | 5.08
O=C(Nc1ccc(OCCN2CCCCC2)cc1C(=O)N/N=C/c1ccc(Cl)c(C(F)(F)F)c1)c1cccc(CSCCO)c1 [Compound 1044, N-[2-(4-Chloro-3-trifluoromethyl-benzylidene-hydrazinocarbonyl)-4-(2-piperidin-1-yl-ethoxy)-phenyl]-3-(2-hydroxy-ethylsulfanylmethyl)-benzamide] | 5.67
COc1ccc(/C=N/NC(=O)c2cc(OCCN3CCCCC3)ccc2NC(=O)c2cccc(CSCCO)c2)cc1 [Compound 1045, 3-(2-Hydroxy-ethylsulfanylmethyl)-N-[2-(4-methoxy-benzylidene-hydrazinocarbonyl)-4-(2-piperidin-1-yl-ethoxy)-phenyl]-benzamide] | 4.88
CCN(CC)CCN(C)Cc1cccc(C(=O)Nc2ccc(OCC3CCCCC3)cc2C(=O)N/N=C/c2cccc(F)c2)c1 [Compound 1046, N-[4-Cyclohexylmethoxy-2-(3-fluoro-benzylidene-hydrazinocarbonyl)-phenyl]-3-{[(2-diethylamino-ethyl)-methyl-amino]-methyl}-benzamide] | > 6.00
CCN(CC)CCN(C)Cc1cccc(C(=O)Nc2ccc(OCC3CCCCC3)cc2C(=O)N/N=C/c2ccc(C)cc2)c1 [Compound 1047, N-[4-Cyclohexylmethoxy-2-(4-methyl-benzylidene-hydrazinocarbonyl)-phenyl]-3-{[(2-diethylamino-ethyl)-methyl-amino]-methyl}-benzamide] | > 6.00
CCN(CC)CCN(C)Cc1cccc(C(=O)Nc2ccc(OCC3CCCCC3)cc2C(=O)N/N=C/c2ccc(C)c(C)c2)c1 [Compound 1048, N-[4-Cyclohexylmethoxy-2-(3,4-dimethyl-benzylidene-hydrazinocarbonyl)-phenyl]-3-{[(2-diethylamino-ethyl)-methyl-amino]-methyl}-benzamide] | > 6.00
CCN(CC)CCN(C)Cc1cccc(C(=O)Nc2ccc(OCC3CCCCC3)cc2C(=O)N/N=C/c2ccc(Cl)c(C(F)(F)F)c2)c1 [Compound 1049, N-[2-(4-Chloro-3-trifluoromethyl-benzylidene-hydrazinocarbonyl)-4-cyclohexylmethoxy-phenyl]-3-{[(2-diethylamino-ethyl)-methyl-amino]-methyl}-benzamide] | > 6.00
CCN(CC)CCN(C)Cc1cccc(C(=O)Nc2ccc(OCC3CCCCC3)cc2C(=O)N/N=C/c2ccc(OC)cc2)c1 [Compound 1050, N-[4-Cyclohexylmethoxy-2-(4-methoxy-benzylidene-hydrazinocarbonyl)-phenyl]-3-{[(2-diethylamino-ethyl)-methyl-amino]-methyl}-benzamide] | 5.85
O=C(Nc1ccc(OCCCCF)cc1C(=O)N/N=C/c1cccc(F)c1)c1cccc(CSCCO)c1 [Compound 1051, N-[2-(3-Fluoro-benzylidene-hydrazinocarbonyl)-4-(4-fluoro-butoxy)-phenyl]-3-(2-hydroxy-ethylsulfanylmethyl)-benzamide] | 5.94
Cc1ccc(/C=N/NC(=O)c2cc(OCCCCF)ccc2NC(=O)c2cccc(CSCCO)c2)cc1 [Compound 1052, N-[4-(4-Fluoro-butoxy)-2-(4-methyl-benzylidene-hydrazinocarbonyl)-phenyl]-3-(2-hydroxy-ethylsulfanylmethyl)-benzamide] | 5.88
Cc1ccc(/C=N/NC(=O)c2cc(OCCCCF)ccc2NC(=O)c2cccc(CSCCO)c2)cc1C [Compound 1053, N-[2-(3,4-Dimethyl-benzylidene-hydrazinocarbonyl)-4-(4-fluoro-butoxy)-phenyl]-3-(2-hydroxy-ethylsulfanylmethyl)-benzamide] | > 6.00
O=C(Nc1ccc(OCCCCF)cc1C(=O)N/N=C/c1ccc(Cl)c(C(F)(F)F)c1)c1cccc(CSCCO)c1 [Compound 1054, N-[2-(4-Chloro-3-trifluoromethyl-benzylidene-hydrazinocarbonyl)-4-(4-fluoro-butoxy)-phenyl]-3-(2-hydroxy-ethylsulfanylmethyl)-benzamide] | > 6.00
COc1ccc(/C=N/NC(=O)c2cc(OCCCCF)ccc2NC(=O)c2cccc(CSCCO)c2)cc1 [Compound 1055, N-[4-(4-Fluoro-butoxy)-2-(4-methoxy-benzylidene-hydrazinocarbonyl)-phenyl]-3-(2-hydroxy-ethylsulfanylmethyl)-benzamide] | 5.71
CCN(CC)CCN(CCN(CC)CC)Cc1cccc(C(=O)Nc2sc3c(c2C(=O)N/N=C/c2ccc(C)cc2)CCCC3)c1 [Compound 1056, 3-{[Bis-(2-diethylamino-ethyl)-amino]-methyl}-N-[3-(4-methyl-benzylidene-hydrazinocarbonyl)-4,5,6,7-tetrahydro-benzo[b]thiophen-2-yl]-benzamide] | 5.73
CCN(CC)CCN(C)Cc1cccc(C(=O)Nc2ccc(OCCCCF)cc2C(=O)N/N=C/c2cccc(F)c2)c1 [Compound 1057, 3-{[(2-Diethylamino-ethyl)-methyl-amino]-methyl}-N-[2-(3-fluoro-benzylidene-hydrazinocarbonyl)-4-(4-fluoro-butoxy)-phenyl]-benzamide] | 5.90

— patent US8134015B2, “Compound inhibiting in vivo phosphorous transport and medicine containing the same” (Kyowa Hakko Kirin Co., Ltd., priority 2003, dated 2012)
